Measured values as given in patent US6140330A, “Thiazole derivative” (Otsuka Pharmaceutical Company, Limited, priority 1996, dated 2000).
Values belong to the compound of their own block, whether it stands above or below them.

Key:
[1] = target: protein kinase C (PKC); assay: Protein Kinase C (PKC) Inhibitory Activity; type: biochemical; settings: rat brain PKC, H1 histone substrate, 10 μM [γ-32P]ATP, 30° C., 30 minutes
Experimental: (1) Protein Kinase C (PKC) Inhibitory Activity
Method for determining PKC activity:
The purification of PKC using rat's brain soluble fractions was carried out by a method of Kikkawa et al. (cf. Ushio Kikkawa, Yoshimi Takai, Ryoji Minakuchi, Sinichi Inohara and Yasutomi Nishizuka: The Journal of Biological Chemistry, vol. 257, No. 22, pp. 13341-13348 (1982)). PKC activity was determined by the transfer of radio activity from the [γ-^32 P] adenosine triphosphate (ATP) to H1 histone derived from calf thymus in the presence of 20 mM Tris-HCl buffer (pH 7.5), H1 histone derived from calf thymus (200 μg/ml), 10 μM [γ-^32P]ATP, 5 mM magnesium acetate, 8 μg/ml phosphatidyl serine, 2 μg/ml diacylglycerol and 0.3 mM Ca^2+. The test compound was dissolved in dimethylformamide, and the test compound solution was added to the assay system so that the final concentration thereof was adjusted to 0.8%. The reaction mixture was incubated at 30° C. for 30 minutes, and the reaction was quenched with 25% trichloroacetic acid. The acid-insoluble protein was collected on a nitrocellulose membrane by suction filtration. The radio activity of ^32 P was determined by scintillation counter. The PKC inhibitory activity of the test compounds was expressed by IC50, which is a concentration of the test compound to be required to reduce the PKC activity by 50%.

[2] = Rat Kidney Ischemic Re-perfusion Model; type: in vivo; settings: for amount of creatine in the blood / amount of urea nitrogen in the blood: in mg/dL (unit assumed)
Experimental: (4) Rat Kidney Ischemic Re-perfusion Model
The right kidney of a SD male rat was taken out, and the left kidney artery was clumped, and then, re-perfused to give a kidney ischemic re-perfusion model. The effect of the compounds of Examples 71, 89 and 100 on the kidney ischemic re-perfusion model was estimated.
The compound of Example 71 was administered intravenously to the rat at a dose of 3 mg/kg 5 minutes before the ischemic. Twenty-four hours later, the blood was collected from the tail vein, and the amounts of creatine and urea nitrogen were determined. The amount of creatine in the blood was 2.19±0.21 (mean±s.e.) in the control group; 1.4±0.11 (mean±s.e.) in the group treated with the compound of Example 71, and the amount of urea nitrogen in the blood was 78.8±5.6 (mean s.e.) in the control group, and 54.1±5.0 (mean±s.e.) in the group treated with the compound of Example 71.
The compound of Example 89 was administered intravenously to the rat at a dose of 3 mg/kg 5 minutes before the ischemic and the re-perfusion. Forty-eight hours later, the blood was collected from the tail vein, and the amounts of creatine and urea nitrogen were determined. The amount of creatine in the blood was 4.31±0.53 (mean±s.e.) in the control group; 2.34±0.46 (mean±s.e.) in the group treated with the compound of Example 89, and the amount of urea nitrogen in the blood was 155.1±15.4 (mean±s.e.) in the control group, and 99.1±16.0 (mean±s.e.) in the group treated with the compound of Example 89.
The compound of Example 100 was administered orally to the rat at a dose of 30 mg/kg one hour before the ischemic. Forty-eight hours later, the blood was collected from the tail vein, and the amounts of creatine and urea nitrogen were determined. The amount of creatine in the blood was 2.48±0.59 (mean±s.e.) in the control group; 1.53±0.20 (mean±s.e.) in the group treated with the compound of Example 100, and the amount of urea nitrogen in the blood was 91.3±20.1 (mean±s.e.) in the control group, and 63.1±10.3 (mean±s.e.) in the group treated with the compound of Example 100.

[3] = Mouse Atopic Dermatitis Model (TNCB-induced increase in auricle thickness); type: in vivo; settings: mice (Balb/c), once a day for two weeks
Experimental: (6) Mouse Atopic Dermatitis Model:
1% […] (TNCB), (10 μl) was applied to each side of the ear of female mice (Balb/c), once every two days for 24 days. Twenty-four days later, the mice were grouped, and the auricle thickness of the mouse was determined by using a dial thickness gage, and the increase in the thickness of auricle was calculated. The compounds of Examples 88 and 89 were dissolved in acetone in a concentration of 1%. The compound of Example 182 was dissolved in a mixture of acetone:methanol in a concentration of 0.75%. Twenty-four days after the beginning of the experiment, the solution of a test compound was applied to each side of the ear 30 minutes before and after the application of TNCB, once a day for two weeks.

[4] = Mouse Collagen Arthritis; type: in vivo; settings: orally once a day
Experimental: (2) Mouse Collagen Arthritis
Bovine II-type collagen (provided by Collagen Gijyutsu Kensyukai) (0.1%) was emulsified with Complete Fleund's adjuvant (CFA) (50%) (manufactured by DIFCO, Ltd.), and the emulsion thus obtained was injected intracutaneously to mice at the tail (primary sensitization). Three weeks later, bovine II-type collagen (0.1%) was injected intraperitoneally again to the mice (secondary sensitization). Three weeks later, the swelling of limbs of the mice was observed, and evaluated by four-degree as 0 to 3 each limb. The degree (0 to 3) each limb was added, and the results were used a score of the arthritis. That is, the maximum degree is 12 (degree 3×4 limb). The test compound was administered orally to the mice once a day, which started after two weeks from the primary sensitization.

[5] = system: anti-DNA antibody; assay: Mouse cGVHD (chronic graft-versus-host disease model), anti-DNA antibody in blood by ELISA; type: in vivo; settings: mice; for amount of anti-DNA antibody in the blood: mean±s.e.
Experimental: (3) Mouse cGVHD (chromic Graft-versus-host disease model)
Female mice (DBA/2NCrj) were subjected to an operation of cervical vertebra dislocation, and the spleen was taken out to give the spleen cells preparation. The preparation were adjusted to 37.5×10^7 cells/ml, and administered to the BDF1 female mice on the tail vein at a dose of 200 μl per a mouse. Two weeks later, the blood was collected in the absence of heparin, and anti-DNA antibody therein was determined by ELISA.
The compound of Example 182 was administered orally to the mice at a dose of 30 to 50 mg/kg once a day for two weeks, and the effect of the test compound on cGVHD was determined.
The amount of anti-DNA antibody in the blood was determined with OD405. The amounts of anti-DNA antibody were 0.348±0.111 (mean±s.e.) in the control group, 0.255±0.062 (mean±s.e.) in the group treated with the compound of Example 182 at a dose of 30 mg/kg, and 0.094±0.026 (mean±s.e.) in the group treated with the compound of Example 182 at a dose of 50 mg/kg.
Further, the compound of Example 100 was also administered orally to the mice at 30 mg/kg once a day for two weeks, and the effect of the compound on cGVHD was also determined.
The amount of anti-DNA antibody in the blood was determined with OD405. The amounts of anti-DNA antibody were 0.258±0.084 (mean±s.e.) in the control group, and 0.177±0.061 (mean±s.e.) in the group treated with the compound of Example 100 at a dose of 30 mg/kg.

[6] = Phorbol Ester (TPA)-induced Mouse Auricle Edema, Acanthosis Model; type: in vivo; settings: mouse (ICR); for increase in the thickness of auricle: after 24 hours, control 215±40 μm, mean±s.e.
Experimental: (5) Phorbol Ester (TPA)-induced Mouse Auricle Edema, Acanthosis Model
A 200 μg/ml phorbol ester (TPA) (10 μl) was applied to the one side to the ear of a female mouse (ICR). Twenty-four hours later, the thickness of the auricle of the mouse was determined with using a dialthickness gage, and the increase in the thickness of auricle was calculated. A test compound was dissolved in acetone, and the solution of a test compound was applied to the both sides of the ear 30 minutes before the application of TPA.
The compound of Example 88 was applied to the ear at a dose of 20 μl of 0.3% or 1% solution. The increase in the thickness of auricle in the control group is 215±40 μm (mean±s.e.) after 24 hours, while 87±53 μm (mean±s.e.) in the group treated with the compound of Example 88 in 0.3%, and 67±23 μm (mean±s.e.) in the group treated with the compound of Example 88 in 1%.

IC50 [1]: 300 nM
Compound: COc1cc(C(=O)/C=C/C(=O)N2CCOC(CN3CCN(C)CC3)C2)ccc1OCC(=O)Nc1nc2ccccc2s1 (stereo not shown) [Example 89]
amounts of both of creatine and urea nitrogen compared with the control group ([2]; i.v. 3 mg/kg 5 minutes before the ischemic and the re-perfusion, 48 hours later): significantly reduced
amount of creatine in the blood ([2]; i.v. 3 mg/kg 5 minutes before the ischemic and the re-perfusion, 48 hours later, control 4.31±0.53, mean±s.e.): 2.34±0.46
amount of urea nitrogen in the blood ([2]; i.v. 3 mg/kg 5 minutes before the ischemic and the re-perfusion, 48 hours later, control 155.1±15.4, mean±s.e.): 99.1±16.0
inhibition of the increase in the auricle thickness ([3]; topical 1% in acetone): about 25%

IC50 [1]: 80 nM
Compound: COc1cc(OCC(=O)Nc2nc3ccccc3s2)ccc1C(=O)/C=C/C(=O)N1CCC(N2CCCN(C)CC2)CC1 [Example 182]
score of arthritis in comparison with the control mice ([4]; 30 to 50 mg/kg): significantly reduced
amount of anti-DNA antibody in the blood ([5]; orally 30 mg/kg once a day for two weeks, control 0.348±0.111): 0.255±0.062 OD405
amount of anti-DNA antibody in the blood ([5]; orally 50 mg/kg once a day for two weeks, control 0.348±0.111): 0.094±0.026 OD405
anti-DNA antibody in the blood compared with the control group ([5]; orally 30 to 50 mg/kg once a day for two weeks): reduced the anti-DNA antibody in the blood dose-dependently
inhibition of the increase in the auricle thickness ([3]; topical 0.75% in acetone:methanol): about 25%

IC50 [1]: 300 nM
Compound: COc1cc(C(=O)/C=C/C(=O)N2CCC(N3CCCN(C)CC3)CC2)ccc1OCC(=O)Nc1nc2ccccc2s1 [Example 100]
anti-DNA antibody in the blood compared with the control group ([5]; orally 30 mg/kg once a day for two weeks): reduced the anti-DNA antibody in the blood
amount of anti-DNA antibody in the blood ([5]; orally 30 mg/kg once a day for two weeks, control 0.258±0.084): 0.177±0.061 OD405
amounts of both of creatine and urea nitrogen compared with the control group ([2]; orally 30 mg/kg one hour before the ischemic, 48 hours later): reduced
amount of creatine in the blood ([2]; orally 30 mg/kg one hour before the ischemic, 48 hours later, control 2.48±0.59, mean±s.e.): 1.53±0.20
amount of urea nitrogen in the blood ([2]; orally 30 mg/kg one hour before the ischemic, 48 hours later, control 91.3±20.1, mean±s.e.): 63.1±10.3

IC50 [1]: 800 nM
Compound: Cc1c(OCC(=O)Nc2nc3ccccc3s2)ccc(C(=O)/C=C/C(=O)N2CCC(N3CCCN(C)CC3)CC2)c1C [Example 192]
score of arthritis in comparison with the control mice ([4]; 50 mg/kg): significantly reduced

IC50 [1]: 300 nM
Compound: Cc1cc(OCC(=O)Nc2nc3ccccc3s2)ccc1C(=O)/C=C/C(=O)N1CCC(N2CCCN(C)CC2)CC1 [Example 197]
score of arthritis in comparison with the control mice ([4]; 50 mg/kg): significantly reduced

IC50 [1]: 800 nM
Compound: CN1CCN(CC2CN(C(=O)/C=C/C(=O)c3ccc(OCC(=O)Nc4nc5ccccc5s4)c(F)c3)CCO2)CC1 (stereo not shown) [Example 71]
amounts of both of creatine and urea nitrogen compared with the control group ([2]; i.v. 3 mg/kg 5 minutes before the ischemic, 24 hours later): significantly reduced
amount of creatine in the blood ([2]; i.v. 3 mg/kg 5 minutes before the ischemic, 24 hours later, control 2.19±0.21, mean±s.e.): 1.4±0.11
amount of urea nitrogen in the blood ([2]; i.v. 3 mg/kg 5 minutes before the ischemic, 24 hours later, control 78.8±5.6, mean±s.e.): 54.1±5.0

IC50 [1]: 100 nM
Compound: COc1cc(C(=O)/C=C/C(=O)N2CCC(N3CCN(C)CC3)CC2)ccc1OCC(=O)Nc1nc2ccccc2s1 [Example 88]
increase in auricle thickness compared with the control group ([6]; topical 20 μl of 0.3% or 1% solution): significantly reduced
increase in the thickness of auricle ([6]; topical 20 μl of 0.3% solution): 87±53 μm
increase in the thickness of auricle ([6]; topical 20 μl of 1% solution): 67±23 μm

IC50 [1]: 600 nM
Compound: O=C(COc1ccc(C(=O)/C=C/C(=O)N2CCN(O)CC2)cc1C(F)(F)F)Nc1nc2ccccc2s1 [Example 160]
score of arthritis in comparison with the control mice ([4]; 50 mg/kg): significantly reduced
